These results are taken from US11773071B2, “Benzothiazepine compounds and their use as bile acid modulators” (Albireo AB, priority 2019, dated 2023).

One assay addresses T1, Human LBAT (Homo sapiens, UniProt Q14973).
T1 construct: expressed in transfected cells; Geneticin-selected
T1 sequence (Q14973 1-349): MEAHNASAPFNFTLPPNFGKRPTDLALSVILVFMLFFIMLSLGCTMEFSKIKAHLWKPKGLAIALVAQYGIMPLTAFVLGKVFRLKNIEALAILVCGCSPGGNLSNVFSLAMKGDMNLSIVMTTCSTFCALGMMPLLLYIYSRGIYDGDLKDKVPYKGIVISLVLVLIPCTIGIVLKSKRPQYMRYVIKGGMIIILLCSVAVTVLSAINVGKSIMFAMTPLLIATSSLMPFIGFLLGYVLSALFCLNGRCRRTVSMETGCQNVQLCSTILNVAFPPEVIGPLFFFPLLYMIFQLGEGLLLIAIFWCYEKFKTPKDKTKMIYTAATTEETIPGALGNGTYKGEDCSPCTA
Briefly: LBAT (h/m) assay, human LBAT-overexpressing cells, 3H-taurocholic acid uptake. Type of assay: cell-based. Conditions: 0.3 μM 3H-taurocholic acid and 7.5 μM cold taurocholic acid, 20 minutes, read-out: hLBAT IC50. The method, then: LBAT (h/m) Assay Protocol
20,000 cells (Human or Mouse LBAT-overexpressing cells) were seeded in 96-wells plate (Corning CLS3809) in 100 μL MEM-alpha medium (Gibco 12571-063) supplemented with 10% FBS (Gibco 10438026) containing Geneticin (Gibco 10131-027) (1 mg/mL) and incubated at 37° C. in 5% CO2 for 24 hours. After incubation, media was decanted from the wells and cells were washed two times with 300 μL of basal MEM-alpha medium (FBS-free). After decanting basal MEM-alpha medium each time, plates were tapped against paper towel to ensure maximum removal of residual media.
For human LBAT, incubation mix was prepared by adding test inhibitor dilutions (3-fold serial dilution in DMSO (Sigma D2650), 10 points) in MEM-alpha (without FBS) containing 0.3 μM 3H-taurocholic acid (ARC ART-1368) and 7.5 μM cold taurocholic acid (Sigma T4009) (maintaining 0.2% final DMSO concentration). For mouse LBAT, incubation mix was prepared by adding test inhibitor dilutions (3-fold serial dilution in DMSO, 10 points) in MEM-alpha (without FBS) containing 0.3 μM 3H-taurocholic acid and 25 μM cold taurocholic acid maintaining 0.2% final DMSO concentration). 50 μL of incubation mix containing test inhibitors was then added to the wells (in duplicate) and the plates were incubated for 20 minutes in a CO2 incubator at 37° C. After incubation, the reaction was stopped by keeping the plates on ice water mix for 2-3 minutes and then the incubation mix was aspirated completely from the wells. The wells were washed two times with 250 μL of chilled unlabelled 1 mM taurocholic acid dissolved in HEPES (Gibco 15630080)-buffered (10 mM) HBSS (Gibco 14175079) (pH 7.4). The plates were tapped against a paper towel after every wash to ensure maximum removal of blocking buffer. 100 μL of MicroScint-20 (PerkinElmer 6013621) was added to the wells and kept overnight at room temperature before reading the plates in TopCount NXT™ Microplate Scintillation and Luminescence Counter from PerkinElmer under 3H Test protocol (set at 120 seconds reading time per well, with normal plate orientation).
(§1) Preparation of Test Compound Dilutions
(§2) All test compounds were provided in powder form at room temperature. 10 mM DMSO stocks of the test compounds were prepared, aliquoted and stored at −20° C. From the 10 mM DMSO stock of the compounds, a 3-fold serial dilution in DMSO was prepared to get a total of 10 dilutions of the test compounds. 0.5 μL of this dilution in DMSO was added to 250 μL of FBS-free basal media containing 3H-taurocholic acid and cold taurocholic acid to prepare the incubation mixture.

The next assay has as its target T2, Human IBAT (Homo sapiens, UniProt Q12908).
T2 construct: expressed in transfected cells; Puromycin-selected
T2 sequence (Q12908 1-348): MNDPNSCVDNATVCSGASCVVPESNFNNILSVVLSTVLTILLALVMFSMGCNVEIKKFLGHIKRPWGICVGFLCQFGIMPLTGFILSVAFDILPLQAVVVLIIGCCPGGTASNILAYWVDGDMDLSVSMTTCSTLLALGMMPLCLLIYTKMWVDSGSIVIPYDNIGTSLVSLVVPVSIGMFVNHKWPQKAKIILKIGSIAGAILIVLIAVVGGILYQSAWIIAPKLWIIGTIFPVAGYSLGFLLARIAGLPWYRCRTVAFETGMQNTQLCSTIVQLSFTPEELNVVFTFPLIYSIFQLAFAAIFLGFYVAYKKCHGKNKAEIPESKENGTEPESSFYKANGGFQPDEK
The assay can be described thus: IBAT (h/m) assay, human IBAT-overexpressing cells, 3H-taurocholic acid uptake. Type of assay: cell-based. The conditions noted are these: 0.25 μM 3H-taurocholic acid and 5 μM cold taurocholic acid, 20 minutes, read-out: hIBAT IC50. On the procedure:
IBAT (h/m) Assay Protocol
10,000 cells (Human or Mouse IBAT-overexpressing cells) were seeded in 96-wells plate (Corning CLS3809) in 200 μL MEM-alpha medium (Gibco 12571-063) supplemented with 10% FBS (Gibco 10438026) containing Puromycin (Gibco A1113803) (10 μg/mL) and incubated at 37° C. in 5% CO2 for 48 hours. After incubation, media was decanted from the wells and cells were washed two times with 300 μL of basal MEM-alpha medium (FBS-free). After decanting basal MEM-alpha medium each time, plates were tapped against paper towel to ensure maximum removal of residual media. Test inhibitor dilutions (highest test concentration being 10 μM, 3-fold serial dilution, 10 points) prepared in DMSO (Sigma D2650) were added in incubation mix (maintaining 0.2% final DMSO concentration) containing 0.25 μM 3H-taurocholic acid (ARC ART-1368) and 5 μM of cold taurocholic acid (Sigma T4009). 50 μL of incubation mix containing test inhibitors was then added to the wells (in duplicate) and the plates were incubated for 20 minutes in a CO2 incubator at 37° C. After incubation, the reaction was stopped by keeping the plates on ice water mix for 2-3 minutes and then the incubation mix was aspirated completely from the wells. The wells were washed two times with 250 μL of chilled unlabelled 1 mM taurocholic acid dissolved in HEPES (Gibco 15630080)-buffered (10 mM) HBSS (Gibco 14175079) (pH 7.4). The plates were tapped against a paper towel after every wash to ensure maximum removal of blocking buffer.
100 μL of MicroScint-20 (PerkinElmer 6013621) was added to the wells and kept overnight at room temperature before reading the plates in TopCount NXT™ Microplate Scintillation and Luminescence Counter from PerkinElmer under 3H Test protocol (set at 120 seconds reading time per well).
as §1, §2

Some results are limits rather than exact numbers.

One may read the IC50 as the concentration that inhibits the measured activity by half.

For the compound `CCCCC1(CC)CN(c2ccccc2)c2cc(Cl)c(OCCC(=O)O)cc2S(=O)(=O)C1` (racemic) [Example 5, 3-((3-Butyl-7-chloro-3-ethyl-1,1-dioxido-5-phenyl-2,3,4,5-tetrahydro-1,5-benzothiazepin-8-yl)oxy)propanoic acid], the half-maximal inhibitory concentration (IC50) was determined as 791 nM at Human LBAT and 35 nM on Human IBAT.
Consider `CCCCC1(CC)CN(c2ccccc2)c2cc(SC)c(OCCC(=O)O)cc2S(=O)(=O)C1` (racemic) [Example 12, 3-((3-Butyl-3-ethyl-7-(methylthio)-1,1-dioxido-5-phenyl-2,3,4,5-tetrahydro-1,5-benzothiazepin-8-yl)oxy)propanoic acid], for which the IC50 at Human LBAT worked out at 669 nM; at Human IBAT it was 4 nM.
As to `CCCCC1(CCCC)CN(c2ccccc2)c2cc(SC)c(OCC(C)(O)C(=O)O)cc2S(=O)(=O)C1` (racemic) [Example 19, 3-((3,3-Dibutyl-7-(methylthio)-1,1-dioxido-5-phenyl-2,3,4,5-tetrahydro-1,5-benzothiazepin-8-yl)oxy)-2-hydroxy-2-methylpropanoic acid], the figures for the IC50 on Human LBAT and at Human IBAT were 601 nM and 39 nM, respectively.
As for `CCCCC1(C)CN(c2ccccc2)c2cc(SC)c(OCCC(=O)O)cc2S(=O)(=O)C1` (racemic) [Example 22, 3-((3-butyl-3-methyl-7-(methylthio)-1,1-dioxido-5-phenyl-2,3,4,5-tetrahydro-1,5-benzothiazepin-8-yl)oxy)propanoic acid], the IC50 came to 543 nM on Human LBAT and 10 nM at Human IBAT.
As for `CCCCC1(CC)CN(c2ccc(F)cc2)c2cc(SC)c(OCCC(=O)O)cc2S(=O)(=O)C1` (racemic) [Example 37, 3-((3-butyl-3-ethyl-5-(4-fluorophenyl)-7-(methylthio)-1,1-dioxido-2,3,4,5-tetrahydro-1,5-benzothiazepin-8-yl)oxy)propanoic acid], the values for the IC50 on Human LBAT and on Human IBAT were 297 nM and 3 nM, respectively.
`CCCCC1(CC)CN(c2ccccc2)c2cc(OC)c(OCCC(=O)O)cc2S(=O)(=O)C1` (racemic) [Example 43, 3-((3-butyl-3-ethyl-7-methoxy-1,1-dioxido-5-phenyl-2,3,4,5-tetrahydro-1,5-benzothiazepin-8-yl)oxy)propanoic acid]: the concentration for half-maximal inhibition (IC50) on Human LBAT is above 20000 nM; on Human IBAT, 44 nM.
For the compound `CCCCC1(CCCC)CN(c2ccccc2)c2cc(SC)c(OCC(OC)C(=O)O)cc2S(=O)(=O)C1` (racemic) [Example 46, 3-((3,3-Dibutyl-7-(methylthio)-1,1-dioxido-5-phenyl-2,3,4,5-tetrahydro-1,5-benzothiazepin-8-yl)oxy)-2-methoxypropanoic acid], the IC50 stood at 1480 nM on Human LBAT and 26 nM at Human IBAT.
On to `CCCCC1(C)CN(c2ccc(F)cc2)c2cc(SC)c(OCCC(=O)O)cc2S(=O)(=O)C1` (racemic) [Example 49, 3-((3-Butyl-5-(4-fluorophenyl)-3-methyl-7-(methylthio)-1,1-dioxido-2,3,4,5-tetrahydro-1,5-benzothiazepin-8-yl)oxy)propanoic acid], for which, on Human IBAT, the IC50 was 10 nM.
For `CCCCC1(C)CN(c2ccccc2)c2cc(N(C)C)c(OCCC(=O)O)cc2S(=O)(=O)C1` (single isomer, unassigned) [29, enantiomer 2], the IC50 at Human LBAT stood at 3310 nM; at Human IBAT it was 57 nM.
In the case of `CCCCC1(CC)CN(c2ccccc2)c2cc(Cl)c(OC(C)CC(=O)O)cc2S(=O)(=O)C1` (single isomer, unassigned) [30, diastereomer 2], the figures for the concentration for half-maximal inhibition (IC50) on Human LBAT and on Human IBAT were 322 nM and 52 nM, respectively.
On the same counts, the results for `CCCCC1(CC)CN(c2ccccc2)c2cc(Cl)c(OC(C)CC(=O)O)cc2S(=O)(=O)C1` (single isomer, unassigned) [30, diastereomers 1 and 2] are 247 nM and 36 nM.
As to `CCCCC1(CC)CN(c2ccccc2)c2cc(Cl)c(OC(C)CC(=O)O)cc2S(=O)(=O)C1` (single isomer, unassigned) [30, diastereomers 3 and 4], the IC50 at Human LBAT is 818 nM; at Human IBAT it was 263 nM.
With `CCCCC1(C)CN(c2ccccc2)c2cc(SC)c(OCC(C)(O)C(=O)O)cc2S(=O)(=O)C1` (single isomer, unassigned) [33, diastereomer 4], the half-inhibitory concentration (IC50) at Human LBAT was found to be 575 nM.
On to `CCCCC1(CC)CN(c2ccccc2)c2cc(SC)c(OCC(N)C(=O)O)cc2S(=O)(=O)C1` (single isomer, unassigned) [36, diastereomer 1], for which, at Human IBAT, the IC50 was determined as 76 nM.
Regarding `CCCCC1(CC)CN(c2ccccc2)c2cc(SC)c(OCC(N)C(=O)O)cc2S(=O)(=O)C1` (single isomer, unassigned) [36, diastereomer 2], the concentration for half-maximal inhibition (IC50) at Human IBAT worked out at 5 nM.
On to `CCCCC1(CC)CN(c2ccccc2)c2cc(N(C)C)c(OCCC(=O)O)cc2S(=O)(=O)C1` (single isomer, unassigned) [Example 18, 3-((3-butyl-7-(dimethylamino)-3-ethyl-1,1-dioxido-5-phenyl-2,3,4,5-tetrahydro-1,5-benzothiazepin-8-yl)oxy)propanoic acid], for which, at Human IBAT, the half-maximal inhibitory concentration (IC50) was determined as 52 nM.
Same read-out and setting: under `CCCC1(CC)CN(c2ccccc2)c2cc(SC)c(OCCC(=O)O)cc2S(=O)(=O)C1` (stereo not drawn) [Example 27, 3-((3-ethyl-7-(methylthio)-1,1-dioxido-5-phenyl-3-propyl-2,3,4,5-tetrahydro-1,5-benzothiazepin-8-yl)oxy)propanoic acid] stands 62 nM; under `CCCCC1(CC)CN(c2ccccc2)c2cc(SC)c(OCC(N)C(=O)O)cc2S(=O)(=O)C1` (stereo not drawn) [Example 28, O-(3-butyl-3-ethyl-7-(methylthio)-1,1-dioxido-5-phenyl-2,3,4,5-tetrahydro-1,5-benzothiazepin-8-yl)serine], 45 nM; under `CCCCC1(C)CN(c2ccc(F)cc2)c2cc(SC)c(OCC(O)C(=O)O)cc2S(=O)(=O)C1` (stereo not drawn) [Example 51, 3-((3-Butyl-5-(4-fluorophenyl)-3-methyl-7-(methylthio)-1,1-dioxido-2,3,4,5-tetrahydro-1,5-benzothiazepin-8-yl)oxy)-2-hydroxypropanoic acid], 5 nM.
